Source: PubChem BioAssay AID2060604 (Molecular Pharmacology Branch, DTP, NCI, 2025)

Tested on: 379773-124-R-J2-PDC complex spheroids, viability % test/control
Assay: Anticancer human tumor 379773-124-R-J2-PDC patient-derived endometrial carcinoma cell line growth inhibition [CLK]
Settings: for IC50: curve of first compound; for viability, T/C: stronger effect = lower value
Outline: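 Multi-cell-type spheroids combined patient-derived tumor cells with HUVEC endothelial cells and human mesenchymal stem cells. Paired agents were dosed in half-log steps down from about clinical Cmax, or from 10 microM where Cmax was unknown.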

[1] = second compound 0.0316 µM, first compound 0.0316 µM
[2] = second compound 0.0316 µM, first compound 0.1 µM
[3] = second compound 0.0316 µM, first compound 0.316 µM
[4] = second compound 0.0316 µM, first compound 1 µM
[5] = second compound 0.0316 µM, first compound 3.16 µM
[6] = second compound 0.0316 µM, first compound 10 µM
[7] = second compound 0.1 µM, first compound 0.0316 µM
[8] = second compound 0.1 µM, first compound 0.1 µM
[9] = second compound 0.1 µM, first compound 0.316 µM
[10] = second compound 0.1 µM, first compound 1 µM
[11] = second compound 0.1 µM, first compound 3.16 µM
[12] = second compound 0.1 µM, first compound 10 µM
[13] = second compound 0.316 µM, first compound 0.0316 µM
[14] = second compound 0.316 µM, first compound 0.1 µM
[15] = second compound 0.316 µM, first compound 0.316 µM
[16] = second compound 0.316 µM, first compound 1 µM
[17] = second compound 0.316 µM, first compound 3.16 µM
[18] = second compound 0.316 µM, first compound 10 µM
[19] = second compound 1 µM, first compound 0.0316 µM
[20] = second compound 1 µM, first compound 0.1 µM
[21] = second compound 1 µM, first compound 0.316 µM
[22] = second compound 1 µM, first compound 1 µM
[23] = second compound 1 µM, first compound 3.16 µM
[24] = second compound 1 µM, first compound 10 µM
[25] = second compound 3.16 µM, first compound 0.0316 µM
[26] = second compound 3.16 µM, first compound 0.1 µM
[27] = second compound 3.16 µM, first compound 0.316 µM
[28] = second compound 3.16 µM, first compound 1 µM
[29] = second compound 3.16 µM, first compound 3.16 µM
[30] = second compound 3.16 µM, first compound 10 µM
[31] = second compound 10 µM, first compound 0.0316 µM
[32] = second compound 10 µM, first compound 0.1 µM
[33] = second compound 10 µM, first compound 0.316 µM
[34] = second compound 10 µM, first compound 1 µM
[35] = second compound 10 µM, first compound 3.16 µM
[36] = second compound 10 µM, first compound 10 µM
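Note: compound exposure lasted seven days before the viability readout.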
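Throughout, for viability, T/C: 100% = DMSO vehicle control wells.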

With `CC1(C)CCC(CN2CCN(c3ccc(C(=O)NS(=O)(=O)c4ccc(NCC5CCOCC5)c([N+](=O)[O-])c4)c(Oc4cnc5[nH]ccc5c4)c3)CC2)=C(c2ccc(Cl)cc2)C1` + CNC(=O)c1ccc(Nc2nc(OC3CCCC3)c3c(-c4ccc5nc(C)oc5c4)c[nH]c3n2)c(OC)c1 the IC50 (second compound 0.0316 µM) was 4460 nM, the IC50 (second compound 0.1 µM) was < 31.6 nM and the IC50 (second compound 0.316 µM) was < 31.6 nM. The IC50 (second compound 1 µM) was < 31.6 nM, the IC50 (second compound 3.16 µM) was < 31.6 nM and the IC50 (second compound 10 µM) was < 31.6 nM. For the same compound, the viability, T/C [1] was 68.1%, the viability, T/C [2] was 79.2% and the viability, T/C [3] was 76.3%. It also gave a viability, T/C [4] of 83.6%, a viability, T/C [5] of 70.9% and a viability, T/C [6] of 0.9%. The viability, T/C [7] was 42.1%, the viability, T/C [8] was 38.5% and the viability, T/C [9] was 33.8%. It also gave a viability, T/C [10] of 38.1%, a viability, T/C [11] of 32.5% and a viability, T/C [12] of 1.18%. For the same compound, the viability, T/C [13] was 35.6%, the viability, T/C [14] was 33.2% and the viability, T/C [15] was 33.7%. It also gave a viability, T/C [16] of 44.9%, a viability, T/C [17] of 32% and a viability, T/C [18] of 1.34%. The viability, T/C [19] was 32%, the viability, T/C [20] was 31.9% and the viability, T/C [21] was 30.8%. It also gave a viability, T/C [22] of 38.6%, a viability, T/C [23] of 28.6% and a viability, T/C [24] of 2.29%. For the same compound, the viability, T/C [25] was 31.2%, the viability, T/C [26] was 33.2% and the viability, T/C [27] was 42%. The viability, T/C [28] was 31.2%, the viability, T/C [29] was 32.7% and the viability, T/C [30] was 0.72%. For the same compound, the viability, T/C [31] was 30.8%, the viability, T/C [32] was 25.5% and the viability, T/C [33] was 30.7%. For the same compound, the viability, T/C [34] was 32.7%, the viability, T/C [35] was 29.3% and the viability, T/C [36] was 1.59%.

With `CC1COCCN1c1cc(C2(S(C)(=N)=O)CC2)nc(-c2ccnc3[nH]ccc23)n1` (centres undefined) + CNC(=O)c1ccc(Nc2nc(OC3CCCC3)c3c(-c4ccc5nc(C)oc5c4)c[nH]c3n2)c(OC)c1 the IC50 (second compound 0.0316 µM) was 1870 nM, the IC50 (second compound 0.1 µM) was < 31.6 nM and the IC50 (second compound 0.316 µM) was < 31.6 nM. For the same compound, the IC50 (second compound 1 µM) was < 31.6 nM, the IC50 (second compound 3.16 µM) was < 31.6 nM and the IC50 (second compound 10 µM) was < 31.6 nM. For the same compound, the viability, T/C [1] was 78%, the viability, T/C [2] was 83.8% and the viability, T/C [3] was 86.2%. For the same compound, the viability, T/C [4] was 67.2%, the viability, T/C [5] was 34.5% and the viability, T/C [6] was 9.32%. For the same compound, the viability, T/C [7] was 42.7%, the viability, T/C [8] was 44.6% and the viability, T/C [9] was 36.1%. The viability, T/C [10] was 42.7%, the viability, T/C [11] was 26% and the viability, T/C [12] was 9.26%. It also gave a viability, T/C [13] of 42.6%, a viability, T/C [14] of 38.5% and a viability, T/C [15] of 39.1%. For the same compound, the viability, T/C [16] was 41.5%, the viability, T/C [17] was 30.1% and the viability, T/C [18] was 12.7%. It also gave a viability, T/C [19] of 40.6%, a viability, T/C [20] of 36.1% and a viability, T/C [21] of 37%. It also gave a viability, T/C [22] of 36.5%, a viability, T/C [23] of 20.5% and a viability, T/C [24] of 5.75%. It also gave a viability, T/C [25] of 27.9%, a viability, T/C [26] of 34% and a viability, T/C [27] of 31.9%. It also gave a viability, T/C [28] of 31.4%, a viability, T/C [29] of 21.4% and a viability, T/C [30] of 5.79%. The viability, T/C [31] was 29.7%, the viability, T/C [32] was 40.1% and the viability, T/C [33] was 28.9%. The viability, T/C [34] was 24.9%, the viability, T/C [35] was 24.2% and the viability, T/C [36] was 4.37%.
